According to US9815863B2, “Hydrogen bond forming fluoro ketolides for treating diseases” (priority 2010, dated 2017):

Experiments:
E. coli 70S ribosomes = assay: Saturation (direct) binding of radiolabeled drug to E. coli ribosomes, spin-column
Method: (§1) Ribosomes were prepared from E. coli, strain MRE 600, S. aureus strain ATCC 29212, or S. aureus strain N315 by standard protocols (Spedding™, G. 1990. Isolation and analysis of ribosomes from prokaryotes, eukaryotes, and organelles, p. 1-29. In G. Spedding (ed.), Ribosomes and protein synthesis, a practical approach. Oxford University Press, Oxford, United Kingdom; Adams, P. D., P. V. Afonine, G. Bunkoczi, V. B. Chen, I. W. Davis, N. Echols, J. J. Headd, L. W. Hung, G. J. Kapral, R. W. Grosse-Kunstleve, A. J. McCoy, N. W. Moriarty, R. Oeffner, R. J. Read, D. C. Richardson, J. S. Richardson, T. C. Terwilliger, and P. H. Zwart. 2010. PHENIX: a comprehensive Python-based system for macromolecular structure solution. Acta Crystallogr. D. Biol. Crystallogr. 66:213-221).
(§2) Competition binding studies. […]
(§3) Direct antibiotic binding experiments were done by incubating ribosomes at a 100 nM concentration with varying concentrations of radiolabeled drug in a total volume of 160 μL in buffer A (20 mM Tris-HCl [pH 7.5], 10 mM MgCl2, 150 mM NH4Cl, 6 mM 2-mercaptoethanol) at 37° C. for 15 min, then at 20° C. for 10 min. […] Radioactivity was measured in a scintillation counter and used to calculate the amount of the radiolabeled drug bound to ribosomes.

ribosomes = conditions: literature values for erythromycin binding; read-out: Kd, previously published; cited from earlier work
[1] = system: S. aureus ribosomes (23S rRNA); assay: RNA footprinting (ribosome chemical probing), wild-type S. aureus ribosomes; assay type: binding; conditions: S. aureus ribosomes, 100 μM antibiotic
Method: (§4) Ribosome chemical probing. rRNA probing was done following standard protocols (Merryman, C., and H. F. Noller. 1998. Footprinting and modification-interference analysis of binding sites on RNA, p. 237-253. In C. W. J. Smith (ed.), RNA:Protein Interactions, A Practical Approach. Oxford University Press, Oxford), with minor modifications. Briefly, 200 nM ribosomes were incubated with 100 μM antibiotic in 50 μL of buffer B (80 mM HEPES-KOH [pH 7.8], 20 mM MgCl2, 100 mM NH4Cl, 1.5 mM dithiothreitol) for 10 min at 37° C., followed by 10 min at 20° C. Modifying reagents (dimethyl sulfate [DMS], kethoxal, or 1-cyclohexyl-3-(2-morpholinoethyl)carbodiimide metho p-toluene sulfonate [CMCT]) were added and the modification reaction was carried out for 10 min at 37° C. After quenching the reaction and ethanol precipitation, rRNA was extracted and the distribution of modified nucleotides was assessed by primer extension.
(§5) Interactions of CEM-101 with wild-type E. coli and S. aureus ribosomes in solution. […] 1987. Chloramphenicol, erythromycin, carbomycin and vernamycin B protect overlapping sites in the peptidyl transferase region of 23S ribosomal RNA. Biochimie 69:879-884). Also included in this study was a C3-cladinose cousin of CEM-101, CEM-103, which lacks the C2-linked fluorine atom.

S. aureus 70S ribosomes = assay: Saturation (direct) binding of radiolabeled drug to S. aureus wild-type ribosomes, spin-column
Method: as §1, §2, §3

[2] = system: ribosomes isolated from the S. aureus N315 strain; assay: Binding of [14C]erythromycin to ribosomes from S. aureus N315; conditions: ribosomes from S. aureus N315, dimethylated at A2058
Method: Competition binding studies. Binding of erythromycin to E. coli and S. aureus ribosomes and competition experiments were done by size-exclusion chromatography using Bio-Gel P30 spin columns as described in Xiong, L., Y. Korkhin, and A. S. Mankin. 2005. Binding site of the bridged macrolides in the Escherichia coli ribosome. Antimicrob. Agents Chemother. 49:281-288.
Direct antibiotic binding experiments were done by incubating ribosomes at a 100 nM concentration with varying concentrations of radiolabeled drug in a total volume of 160 μL in buffer A (20 mM Tris-HCl [pH 7.5], 10 mM MgCl2, 150 mM NH4Cl, 6 mM 2-mercaptoethanol) at 37° C. for 15 min, then at 20° C. for 10 min. The reactions were loaded onto the spin columns and centrifuged in a swinging-bucket microcentrifuge rotor for 1 min at 1,000 g at room temperature. The flow-through solution was collected; 130 μL was mixed with 5 mL of the scintillation cocktail. Radioactivity was measured in a scintillation counter and used to calculate the amount of the radiolabeled drug bound to ribosomes.
Interaction of CEM-101 with S. aureus ribosomes dimethylated at A2058 by Erm-methyltransferase. Erm-methyltransferase modifies A2058 in 23S rRNA by consecutively adding two methyl groups to the exocyclic amino group of the adenine base. […]

[3] = system: 2058-dimethylated ribosomes isolated from the S. aureus N315 strain; assay: RNA footprinting of A2058-dimethylated (Erm-modified) ribosomes from S. aureus N315; assay type: binding; conditions: S. aureus N315 ribosomes dimethylated at A2058, drugs at 100 μM
Method: as §4
Interaction of CEM-101 with S. aureus ribosomes dimethylated at A2058 by Erm-methyltransferase. Erm-methyltransferase modifies A2058 in 23S rRNA by consecutively adding two methyl groups to the exocyclic amino group of the adenine base. Such modification completely blocks binding of erythromycin and similar macrolides, whereas its effect on binding of ketolides is less clear (Douthwaite, S., L. H. Hansen, and P. Mauvais. 2000. Macrolide-ketolide inhibition of MLS-resistant ribosomes is improved by alternative drug interaction with domain R of 23S rRNA. Mol. Microbiol. 36:183-193; Liu, M., and S. Douthwaite. 2002. Activity of the ketolide telithromycin is refractory to Erm monomethylation of bacterial rRNA. Antimicrob. Agents Chemother. 46:1629-1633). Therefore, interaction of CEM-101 with the ribosomes isolated from a clinical S. aureus strain N315, which carries five chromosomal copies of constitutively expressed ermA gene present in the Tn554 transposon (Kuroda, M., T. Ohta, I. Uchiyama, T. Baba, H. Yuzawa, I. Kobayashi, L. Cui, A. Oguchi, K. Aoki, Y. Nagai, J. Lian, T. Ito, M. Kanamori, H. Matsumaru, A. Maruyama, H. Murakami, A. Hosoyama, Y. Mizutani-Ui, N. K. Takahashi, T. Sawano, R. Inoue, C. Kaito, K. Sekimizu, H. Hirakawa, S. Kuhara, S. Goto, J. Yabuzaki, M. Kanehisa, A. Yamashita, K. Oshima, K. Furuya, C. Yoshino, T. Shiba, M. Hattori, N. Ogasawara, H. Hayashi, and K. Hiramatsu. 2001. Whole genome sequencing of meticillin-resistant Staphylococcus aureacs. Lancet 357:1225-1240) was investigated.
Footprinting analysis was used to test interactions of ketolides (CEM-101 and telithromycin) and cladinose-containing macrolides (CEM-103 and erythromycin) with the 2058-dimethylated ribosomes isolated from the S. aureus N315 strain. Ribosomes were incubated with the drugs (present at 100 μM concentration) and probed by DMS modification. Because dimethylated A2058 blocks progression of reverse transcriptase along the RNA template, a strong reverse transcriptase stop is observed at A2058 on the primer extension gel (Vester, B., and S. Douthwaite. 1994. Domain V of 23S rRNA contains all the structural elements necessary for recognition by the ErmE methyltransferase. J. Bacteriol. 176:6999-7004; Zhong, P., Z. Cao, R. Hammond, Y. Chen, J. Beyer, V. D. Shortridge, L. Y. Phan, S. Pratt, J. Capobianco, K. A. Reich, R. K. Flamm, Y. S. Or, and L. Katz. 1999. Induction of ribosome methylation in MLS-resistant Streptococcus pneumoniae by macrolides and ketolides. Microb. Drug Resist. 5:183-188). Therefore, it is impossible to use footprinting to evaluate interactions of macrolides with this position in the S. aureus N315 ribosomes. […]

[4] = system: E. coli ribosomes (23S rRNA); assay: RNA footprinting (ribosome chemical probing), wild-type E. coli ribosomes; assay type: binding; conditions: E. coli ribosomes, 100 μM antibiotic
Method: as §4, §5

SMILES: CC[C@H]1OC(=O)[C@H](C)[C@@H](O[C@H]2C[C@@](C)(OC)[C@@H](O)[C@H](C)O2)[C@H](C)[C@@H](O[C@@H]2O[C@H](C)C[C@H](N(C)C)[C@H]2O)[C@](C)(O)C[C@@H](C)C(=O)[C@H](C)[C@@H](O)[C@]1(C)O [erythromycin]
- Kd (E. coli 70S ribosomes): 66 ± 11 nM
- Kd (ribosomes): 10 to 100 nM
- Protection of A752 from DMS modification [1]: fails to protect
- Kd (S. aureus 70S ribosomes): 11 ± 1 nM
- Binding to ribosomes [2]: lack of binding
- Protection of A2059 from DMS modification (binding to Erm-modified ribosome) [3]: not
- Protection of G2505 from kethoxal modification [3]: did not protect
- Protection of U2609 from modification with CMCT [3]: did not protect
- Protection of A752 from DMS modification [4]: fails to protect
